Assay results as given in patent US9211278B2, “Composition containing arylnaphthalene lignan derivative for preventing and/or treating dementia” (KOREA INSTITUTE OF SCIENCE AND TECHNOLOGY, priority 2012, dated 2015).

Experiments:
[1] = system: male ICR mouse; assay: Morris water maze test, scopolamine-impaired memory model; assay type: in vivo; settings: oral, 1, 5, 10 and 20 mg/kg, compared to scopolamine group
Experimental: The male ICR mouse was 5 to 6-week age (25-30 g of body weight) (Orientbio Inc., Seougnam, Republic of Korea), and was raised with solid feed and tap water for 1 week before being used for test. At a first day, the normal control group and the group administered by the scopolamine were fed with 5% (v/v) DMSO-saline, the test group was orally administered by 1, 5, 10 and 20 mg/kg/10 ml of Justicidin A (C1) in 5% DMSO-Saline, and the comparative group was administered with 2 mg/kg/10 ml of Donepezil (brand name: Aricept, Eisai) being commercially available as a drug for treating an dementia of the Alzheimer's type. […]
The same test was performed repetitively twice per a day for 4 days as an Acquisition Test, and the entire test was automatically recorded and analyzed with Noldus Ethovision 7.0 program (Noldus Information Technology, USA).
In addition, after finishing the Acquisition Test performed for four (4) days, the Probe test was carried out at fifth day. […] The whole test procedure was automatically recorded and analyzed with Noldus Ethovision 7.0 program (Noldus Information Technology, USA).

[2] = system: beta-amyloid (Aβ40, Aβ42) formation; assay: Beta-amyloid (Aβ40, Aβ42) formation, ELISA, in APP-transfected HeLa cells; assay type: cell-based, human; settings: HeLa-APP cells, various concentrations (FIGS. 1, 2, 6)
Experimental: To test the inhibitory effect of Justicidin A (C1) obtained in Example 2 on the beta-amyloid formation, HeLa cell line transfected with the amyloid precursor protein (APP) driven from human was cultured in DMEM solution (Cat. #11995, Gibco, USA) for use. The cell line was received from Prof. Tae-Wan Kim at Department of Pathology, Columbia University Medical Center, New York, N.Y. 10032, USA.
Specifically, the Justicidin A of Example 2 was added into the cell line culture at the amount indicated in FIG. 1, and then the produced amount of be-amyloid (Aβ40, Aβ42 was measured. Human β-Amyloid[1-40](Aβ40), Human β-Amyloid [1-42](Aβ42) Colorimetric ELISA kit (#KHB3482 and #KHB3442; BioSource International, Inc., U.S.A.) were used to quantify two types of beta-amyloid (Aβ40, Aβ42).
The 5-methoxyJusticidin A (C2) of Example 2 was added into the cell line culture at the amount indicated in FIG. 2, and then the produced amount of be-amyloid was measured according to the method of Example 1.1. The group which was not treated with 5-methoxyjusticidin A was used as a negative control.
The compounds were used at the amount of FIG. 6, and measured for the beta-amyloid (Aβ40, Aβ42) formation according to the same method of Experimental Example <1-1>. The group treated with Justicidin A(C1) was a positive control and the group with no treatment was a negative control.

[3] = system: transferrin endocytosis; assay: Transferrin endocytosis (confocal microscopy); assay type: cell-based, human; settings: 1 uM, 10, 30, 60 min at 37° C.
Experimental: The reduced endocytosis rate may be caused by total reduction of endocytosis other than the specific reduction of APP endocytosis rate, because many proteins other than APP can be modified to include the O-glycosylation and the like, by Justicidin A. Thus, the effect of Justicidin A to transferrin, internalized by clathrin-dependent endocytosis like APP was measured, in order to identify selectivity of reducing of APP endocytosis rate by O-glycosylation.
5×10^5 cells of HeLa cell line transfected with amyloid precursor protein (APP) same as above, incubated for 24 hrs, 1 uM Justicidin A treated at 4° C. for 45 min. Then, transferrin was fluorescent-labeled by treating Alexa Fluor 488 conjugated transferrin (25 ug/ml concentration, #T13342, Invitrogen). Transferrin endocytosis was progressed depending on the incubation time 10, 30, 60 min at 37° C., then remained transferrin was washed out by treating pH 5.5 buffer (0.1M sodium acetate, 0.05M NaCl) to cell surface for 5 min
Intracellular location of transferrin was measured by confocal microscopy (LSM510, Zeiss, Germany) at 488 nm.

COc1cc2c(OC)c3c(c(-c4ccc5c(c4)OCO5)c2cc1OC)C(=O)OC3 [Justicidin A]
memory and learning ability (acquisition and probe test) [1]: equivalent or higher memory and learning ability | inhibition of beta-amyloid (Aβ40, Aβ42) formation [2]: inhibited the beta-amyloid (Aβ40, Aβ42) formation at a concentration-dependent manner | transferrin endocytosis [3]: no effect of Justicidin A to transferrin endocytosis
